Assay results taken from patent publication US20210253642A1, “CALPAIN MODULATORS AND THERAPEUTIC USES THEREOF BACKGROUND” (Blade Therapeutics, Inc., priority 2018, published 2021).

Columns and labels:
Assay type in all cases: biochemical
[1] = target: T1, Human Calpain 1/NS1 (Homo sapiens, UniProt P07384); test: Calpain continuous fluorescence (FRET) inhibition assay; conditions: Column A; SensoLyte 520 FRET substrate, pH 7.5, 25C
T1 sequence (P07384 1-714): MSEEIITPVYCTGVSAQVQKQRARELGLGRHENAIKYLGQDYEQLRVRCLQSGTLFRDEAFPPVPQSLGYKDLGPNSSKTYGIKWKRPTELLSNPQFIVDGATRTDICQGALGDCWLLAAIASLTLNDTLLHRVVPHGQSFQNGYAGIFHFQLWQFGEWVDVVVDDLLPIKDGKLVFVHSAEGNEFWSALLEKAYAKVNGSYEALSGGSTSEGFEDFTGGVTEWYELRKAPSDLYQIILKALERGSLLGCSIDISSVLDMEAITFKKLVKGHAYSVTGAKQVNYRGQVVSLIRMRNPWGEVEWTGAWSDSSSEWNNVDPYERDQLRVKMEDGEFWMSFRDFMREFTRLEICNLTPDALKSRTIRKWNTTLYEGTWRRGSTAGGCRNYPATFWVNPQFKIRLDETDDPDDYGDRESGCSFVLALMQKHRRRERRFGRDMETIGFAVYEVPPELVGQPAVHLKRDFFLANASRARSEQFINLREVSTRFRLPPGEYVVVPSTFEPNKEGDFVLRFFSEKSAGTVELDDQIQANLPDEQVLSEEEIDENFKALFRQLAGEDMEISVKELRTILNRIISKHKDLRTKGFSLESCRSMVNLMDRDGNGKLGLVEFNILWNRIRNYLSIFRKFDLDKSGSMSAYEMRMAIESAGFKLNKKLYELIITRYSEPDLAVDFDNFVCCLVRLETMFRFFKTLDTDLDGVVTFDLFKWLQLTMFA
T1 sequence (P04632 1-268 partner): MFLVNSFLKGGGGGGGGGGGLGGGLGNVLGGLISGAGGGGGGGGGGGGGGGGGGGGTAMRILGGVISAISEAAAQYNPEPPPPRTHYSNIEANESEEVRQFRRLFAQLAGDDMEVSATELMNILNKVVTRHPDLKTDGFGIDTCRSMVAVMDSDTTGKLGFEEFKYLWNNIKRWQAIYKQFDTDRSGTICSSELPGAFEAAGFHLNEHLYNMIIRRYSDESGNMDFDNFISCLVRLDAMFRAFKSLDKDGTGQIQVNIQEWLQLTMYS
Procedure: (§1) Calpain 1, 2, and 9 activity and inhibition thereof was assessed by means of a continuous fluorescence assay. The SensoLyte 520 Calpain substrate (Anaspec Inc.) was optimized for detecting calpain activity. This substrate contains an internally quenched 5-FAM/QXLTM 520 FRET pair. Calpains 1, 2, and 9 cleave the FRET substrate into two separate fragments resulting in an increase of 5-FAM fluorescence that is proportional to calpain activity
(§2) Assays were typically setup in black 384-well plates using automated liquid handling as follows. Calpain assay base buffer typically contains 50 mM Tris, pH 7.5, 100 mM NaCl and 1 mM DTT. Inhibitors were serially diluted in DMSO and used to setup 2× mixtures with calpains in the aforementioned buffer. After incubation at ambient temperature (25C), the reaction was initiated by adding a 2× mix of the fluorescent peptide substrate and CaCl2) (required for in-situ calpain activation) in the same buffer. Reaction progress curve data were typically collected for 10 min using excitation/emission wavelengths of 490 nm/520 nm on SpectraMax i3x or the FLIPR-Tetra plate readers (Molecular Devices Inc.). Reaction rates were calculated from progress curve slopes typically over 1-5 min. Dose response curves (rate vs. log inhibitor concentration) were typically fit to a 4-parameter logistic function to extract IC50 values.

[2] = target: T2, Human Calpain 2/NS1 (Homo sapiens, UniProt P17655); test: as above; conditions: Column B; SensoLyte 520 FRET substrate, pH 7.5, 25C
T2 sequence (P17655 1-700): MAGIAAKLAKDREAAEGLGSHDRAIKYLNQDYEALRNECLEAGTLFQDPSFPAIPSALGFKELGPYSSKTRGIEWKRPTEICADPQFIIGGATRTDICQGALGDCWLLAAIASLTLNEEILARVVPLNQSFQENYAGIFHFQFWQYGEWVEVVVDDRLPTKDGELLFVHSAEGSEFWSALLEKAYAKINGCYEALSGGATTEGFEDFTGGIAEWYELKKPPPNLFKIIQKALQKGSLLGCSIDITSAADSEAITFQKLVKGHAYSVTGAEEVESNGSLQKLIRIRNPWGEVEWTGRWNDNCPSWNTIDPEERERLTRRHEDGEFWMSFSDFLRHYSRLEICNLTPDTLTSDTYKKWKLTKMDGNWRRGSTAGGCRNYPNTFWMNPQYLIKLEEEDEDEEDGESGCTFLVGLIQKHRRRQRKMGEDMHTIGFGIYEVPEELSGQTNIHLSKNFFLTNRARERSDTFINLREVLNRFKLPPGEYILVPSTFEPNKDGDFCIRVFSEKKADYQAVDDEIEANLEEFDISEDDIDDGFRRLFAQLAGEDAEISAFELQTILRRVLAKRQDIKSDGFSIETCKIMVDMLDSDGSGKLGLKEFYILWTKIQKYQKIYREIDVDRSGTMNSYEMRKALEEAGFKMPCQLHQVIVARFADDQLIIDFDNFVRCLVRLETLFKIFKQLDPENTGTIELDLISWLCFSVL
T2 sequence (P04632 1-268 partner): T1 sequence (P04632 1-268 partner)
Procedure: as §1, §2

[3] = target: T3, Human Calpain 9/NS1 (Homo sapiens, UniProt O14815); test: as above; conditions: Column C; SensoLyte 520 FRET substrate, pH 7.5, 25C
T3 sequence (O14815 1-690): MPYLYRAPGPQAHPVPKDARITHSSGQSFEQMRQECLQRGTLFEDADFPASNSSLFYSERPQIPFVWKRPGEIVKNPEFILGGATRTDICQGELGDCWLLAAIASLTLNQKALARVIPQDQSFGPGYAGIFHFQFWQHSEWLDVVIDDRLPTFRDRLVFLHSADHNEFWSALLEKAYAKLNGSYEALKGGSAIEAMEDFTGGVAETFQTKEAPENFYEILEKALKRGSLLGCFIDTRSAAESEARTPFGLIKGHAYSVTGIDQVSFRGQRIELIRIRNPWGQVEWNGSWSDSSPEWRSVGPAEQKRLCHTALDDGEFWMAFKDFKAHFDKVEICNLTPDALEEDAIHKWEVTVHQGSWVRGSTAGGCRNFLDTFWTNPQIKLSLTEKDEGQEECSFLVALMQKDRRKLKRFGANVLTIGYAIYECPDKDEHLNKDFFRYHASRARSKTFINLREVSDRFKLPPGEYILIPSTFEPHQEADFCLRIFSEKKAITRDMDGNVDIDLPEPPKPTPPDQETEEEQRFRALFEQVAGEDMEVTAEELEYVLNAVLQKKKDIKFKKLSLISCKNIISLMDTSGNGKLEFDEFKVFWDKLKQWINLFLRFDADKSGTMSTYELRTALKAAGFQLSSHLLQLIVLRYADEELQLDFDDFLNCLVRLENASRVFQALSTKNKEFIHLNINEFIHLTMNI
T3 sequence (P04632 1-268 partner): T1 sequence (P04632 1-268 partner)
Procedure: as §1, §2

[4] = target: T4, Human Cathepsin B (Homo sapiens, UniProt P07858); test: Cathepsin continuous fluorescence inhibition assay; conditions: Column D; enzyme 25 nM, substrate 1 uM, pH 5.0, 30 minutes pre-incubation with inhibitor
T4 construct: purchased
Procedure: (§3) Cathepsin activity and inhibition thereof was assessed by means of a continuous fluorescence assay. All assays were run in 384 well format and utilized peptide substrates that liberate fluorescence upon protease catalyzed cleavage. FLIPR plate readers (Molecular Devices Inc.) were used to monitor reactions and extract initial rates which were then fit (four parameter logistic function) to obtain IC50 values. All enzymes are human. All enzymes and reagents were obtained commercially and are summarized in Tables 1 and 2 below along with assay conditions.

[5] = target: T5, Human Cathepsin K (Homo sapiens, UniProt P43235); test: Cathepsin continuous fluorescence inhibition assay; conditions: Column E; enzyme 10 nM, substrate 1 uM, pH 5.5, 30 minutes pre-incubation with inhibitor
T5 construct: purchased
T5 sequence (P43235 115-329): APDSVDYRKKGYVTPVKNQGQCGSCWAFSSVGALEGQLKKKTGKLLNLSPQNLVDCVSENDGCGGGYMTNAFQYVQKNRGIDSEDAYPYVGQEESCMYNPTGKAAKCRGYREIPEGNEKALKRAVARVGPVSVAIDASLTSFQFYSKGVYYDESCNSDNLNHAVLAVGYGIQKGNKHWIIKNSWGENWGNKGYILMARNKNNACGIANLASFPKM
Procedure: as §3

[6] = target: T6, Human Cathepsin L (Homo sapiens, UniProt P07711); test: Cathepsin continuous fluorescence inhibition assay; conditions: Column G; enzyme 0.025 nM, substrate 1 uM, pH 6.0, 30 minutes pre-incubation with inhibitor
T6 construct: purchased
T6 sequence (P07711 114-333): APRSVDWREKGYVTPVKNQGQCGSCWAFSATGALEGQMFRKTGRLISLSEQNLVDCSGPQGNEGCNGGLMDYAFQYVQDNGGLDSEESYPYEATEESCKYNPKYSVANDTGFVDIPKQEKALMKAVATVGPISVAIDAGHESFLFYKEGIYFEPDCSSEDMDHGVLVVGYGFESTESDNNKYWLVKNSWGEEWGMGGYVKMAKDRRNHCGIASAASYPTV
Procedure: as §3

[7] = target: T7, Human Cathepsin S (Homo sapiens, UniProt P25774); test: Cathepsin continuous fluorescence inhibition assay; conditions: Column F; enzyme 6 nM, substrate 1 uM, pH 4.5, 30 minutes pre-incubation with inhibitor
T7 construct: purchased
T7 sequence (P25774 115-331): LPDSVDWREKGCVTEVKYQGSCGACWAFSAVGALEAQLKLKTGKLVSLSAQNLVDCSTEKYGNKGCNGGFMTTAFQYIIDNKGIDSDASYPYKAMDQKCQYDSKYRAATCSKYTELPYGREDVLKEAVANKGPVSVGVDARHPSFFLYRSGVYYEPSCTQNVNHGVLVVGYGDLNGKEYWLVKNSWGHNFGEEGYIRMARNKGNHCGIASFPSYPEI
Procedure: as §3

| SMILES | IC50 [1] | IC50 [2] | IC50 [3] | IC50 [4] | IC50 [5] | IC50 [6] | IC50 [7] |
| --- | --- | --- | --- | --- | --- | --- | --- |
| CC(C)[C@@H]1NC(=O)/C=C/[C@@H](NC(=O)CNC(=O)[C@H](Cc2ccc(O)cc2)NC(=O)OC(C)(C)C)COC(=O)[C@H](Cc2ccc(O)cc2)NC1=O [Compound 8, tert-butyl ((s)-1-((2-(((3S,6S,11R,E)-3-(4-hydroxybenzyl)-6-isopropyl-2,5,8-trioxo-1-oxa-4,7-diazacyclododec-9-en-11-yl)amino)-2-oxoethyl)amino)-3-(4-hydroxyphenyl)-1-oxopropan-2-yl)carbamate] | > 10 µM | > 10 µM | > 10 µM | < 3 µM | < 3 µM | < 3 µM | < 3 µM |
| CCCCCC/C=C\CC(=O)NCC(=O)N[C@H](C(=O)N[C@@H]1/C=C/C(=O)N[C@@H](C(C)C)C(=O)N[C@@H](Cc2ccc(O)cc2)C(=O)OC1)C(C)C [Compound 10, (Z)—N-(2-(((S)-1-(((3S,6S,11R,E)-3-(4-hydroxybenzyl)-6-isopropyl-2,5,8-trioxo-1-oxa-4,7-diazacyclododec-9-en-11-yl)amino)-3-methyl-1-oxobutan-2-yl)amino)-2-oxoethyl)dec-3-enamide] | < 3 µM | < 3 µM | > 10 µM | < 3 µM | < 3 µM | < 3 µM | < 3 µM |
| CCCCCC/C=C\CC(=O)N[C@@H](Cc1ccc(O)cc1)C(=O)N[C@H](C(=O)N[C@@H]1/C=C/C(=O)N[C@@H](C(C)C)C(=O)N[C@@H](Cc2ccc(OC)cc2)C(=O)OC1)C(C)C [Compound 11, (Z)—N—((S)-3-(4-hydroxyphenyl)-1-(((S)-1-(((3S,6S,11R,E)-6-isopropyl-3-(4-methoxybenzyl)-2,5,8-trioxo-1-oxa-4,7-diazacyclododec-9-en-11-yl)amino)-3-methyl-1-oxobutan-2-yl)amino)-1-oxopropan-2-yl)dec-3-enamide] | < 3 µM | < 3 µM | > 10 µM | < 3 µM | < 3 µM | < 3 µM | < 3 µM |
| CC(C)[C@@H]1NC(=O)/C=C/[C@@H](NC(=O)[C@H](C)NC(=O)OC(C)(C)C)COC(=O)[C@H](Cc2ccc(O)cc2)NC1=O [Compound 13, tert-butyl ((s)-1-(((3S,6S,11R,E)-3-(4-hydroxybenzyl)-6-isopropyl-2,5,8-trioxo-1-oxa-4,7-diazacyclododec-9-en-11-yl)amino)-1-oxopropan-2-yl)carbamate] | > 10 µM | > 10 µM | > 10 µM | < 3 µM | < 3 µM | < 3 µM | < 3 µM |

Now from value to compound:

| IC50 [1] | IC50 [2] | IC50 [3] | IC50 [4] | IC50 [5] | IC50 [6] | IC50 [7] | SMILES |
| --- | --- | --- | --- | --- | --- | --- | --- |
| 3 to 10 µM | < 3 µM | > 10 µM | < 3 µM | < 3 µM | < 3 µM | < 3 µM | CC(C)[C@@H]1NC(=O)/C=C/[C@@H](NC(=O)[C@@H](NC(=O)OCc2ccccc2)C(C)C)COC(=O)[C@H](Cc2ccc(O)cc2)NC1=O [Compound 9, Benzyl ((s)-1-(((3S,6S,11R,E)-3-(4-hydroxybenzyl)-6-isopropyl-2,5,8-trioxo-1-oxa-4,7-diazacyclododec-9-en-11-yl)amino)-3-methyl-1-oxobutan-2-yl)carbamate] |
| < 3 µM | < 3 µM | > 10 µM | < 3 µM | < 3 µM | < 3 µM | < 3 µM | CC(C)C[C@H](NC(=O)OC(C)(C)C)C(=O)N[C@@H]1/C=C/C(=O)N[C@@H](C(C)C)C(=O)N[C@@H](Cc2ccc(O)cc2)C(=O)OC1 [Compound 12, tert-butyl ((S)-1-(((3S,6S,11R,E)-3-(4-hydroxybenzyl)-6-isopropyl-2,5,8-trioxo-1-oxa-4,7-diazacyclododec-9-en-11-yl)amino)-4-methyl-1-oxopentan-2-yl)carbamate] |
| > 10 µM | > 10 µM | > 10 µM | 3 to 10 µM | < 3 µM | < 3 µM | < 3 µM | CC(C)[C@@H]1NC(=O)/C=C/[C@@H](NC(=O)[C@H](Cc2ccccc2)NC(=O)OC(C)(C)C)COC(=O)[C@H](Cc2ccc(O)cc2)NC1=O [Compound 14, tert-butyl ((s)-1-(((3S,6S,11R,E)-3-(4-hydroxybenzyl)-6-isopropyl-2,5,8-trioxo-1-oxa-4,7-diazacyclododec-9-en-11-yl)amino)-1-oxo-3-phenylpropan-2-yl)carbamate] |
